Measured values from publication PMC9781003, “Two Antenna-Enriched Odorant Binding Proteins in Dioryctria abietella Tuned to General Odorants and Insecticides” (Insects, 2022).
Where “and” joins values, the source holds several entries; their conditions need not be identical. Equal values may be shown once. Read-outs that look alike come from different tables or passages of the source.

Assays:
DabiOBP5 = biological target: T1, DabiOBP5 (Dioryctria abietella, UniProt A0A8E6HS34); test: Competitive fluorescence binding assay with 1-NPN probe, recombinant DabiOBP5
T1 sequence (A0A8E6HS34 19-139): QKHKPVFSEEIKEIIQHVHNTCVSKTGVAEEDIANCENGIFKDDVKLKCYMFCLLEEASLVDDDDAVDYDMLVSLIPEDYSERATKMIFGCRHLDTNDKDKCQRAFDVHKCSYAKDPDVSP
Description: In the binding assays, we selected 100 compounds derived from host/non-host plants and man-made insecticides widely used for the control of lepidopteran pests, representing 88 general odorants (21 esters, 21 alcohols, 14 aldehydes, 13 alkenes, seven ketones, 11 alkanes and one acid) and 12 insecticides. These compounds and N-phenyl-1-naphthylamine (1-NPN) were purchased from Aladdin and Sigma-Aldrich, with the highest available purity. […] The concentrations of the work solution for each ligand and 1-NPN were set at 1 mM.
In order to measure the binding properties of the DabiOBPs to the 100 ligands, competitive binding assays were performed on a RF5301PC fluorescence spectrophotometer (Shimadzu, Japan). The concentrations of DabiOBPs and the fluorescent probe 1-NPN were set at 2 μM. […] Accordingly, binding constants (K1-NPN) of the DabiOBPs and 1-NPN were calculated using GraphPad Prism 7 (GraphPad Software Inc., San Diego, CA). […] For the ligands replacing over a half of 1-NPN fluorescence (50%) at 20 μM, three replicates were performed. The excitation wavelength was set at 337 nm and the emission peaks were recorded at around 400 nm.

DabiOBP14 = type: binding, Dioryctria abietella; settings: for OBP14 F.D. (%) fluorescence displacement percent: ligand at 20 μM, DabiOBP14/1-NPN each 2 μM, Tris-HCl pH 7.4, NB = no binding; for Ki: competitive displacement of 1-NPN, three replicates, mean ± SE, read-out: OBP14 Ki (dissociation constant)
Experimental: In the binding assays, we selected 100 compounds derived from host/non-host plants and man-made insecticides widely used for the control of lepidopteran pests, representing 88 general odorants (21 esters, 21 alcohols, 14 aldehydes, 13 alkenes, seven ketones, 11 alkanes and one acid) and 12 insecticides. These compounds and N-phenyl-1-naphthylamine (1-NPN) were purchased from Aladdin and Sigma-Aldrich, with the highest available purity. They were first diluted into 100 mM, using methanol (HPLC purity grade, ≥99.9%) as a stock solution. The concentrations of the work solution for each ligand and 1-NPN were set at 1 mM.
In order to measure the binding properties of the DabiOBPs to the 100 ligands, competitive binding assays were performed on a RF5301PC fluorescence spectrophotometer (Shimadzu, Japan). The concentrations of DabiOBPs and the fluorescent probe 1-NPN were set at 2 μM. The binding of DabiOBPs to 1-NPN in 20 mM Tris-HCl buffer (pH 7.4) was measured by adding final concentrations of 2–16 μM 1-NPN. Accordingly, binding constants (K1-NPN) of the DabiOBPs and 1-NPN were calculated using GraphPad Prism 7 (GraphPad Software Inc., San Diego, CA). The binding of the DabiOBPs to various ligands was conducted by adding different concentrations of ligands (2, 4, 6, 8, 12, 16 and 20 μM) into the DabiOBP5/1-NPN (each 2 μM) or DabiOBP14/1-NPN (each 2 μM) mixtures. For the ligands replacing over a half of 1-NPN fluorescence (50%) at 20 μM, three replicates were performed. The excitation wavelength was set at 337 nm and the emission peaks were recorded at around 400 nm. The dissociation constants (Ki) of the tested ligands to DabiOBPs were computed, using the equation: Ki = [IC50]/(1 + [1-NPN]/K1-NPN), where [1-NPN] was the free concentration of 1-NPN and IC50 was the concentration of ligands replacing 50% of 1-NPN fluorescence.

[1] = ligand at 20 μM; DabiOBP5/1-NPN each 2 μM; Tris-HCl pH 7.4; NB = no binding; read-out: OBP5 F.D. (%) fluorescence displacement percent
[2] = ligand at 20 μM; DabiOBP5/1-NPN each 2 μM; Tris-HCl pH 7.4; NB = no binding
[3] = pH 7.4, read-out: OBP5 F.D. (%) fluorescence displacement percent
[4] = read-out: OBP5 Ki (dissociation constant); competitive displacement of 1-NPN; three replicates; mean ± SE

SMILES | inhibition at 20 µM (DabiOBP5; [1]) | OBP14 F.D. (%) fluorescence displacement percent (DabiOBP14) | further results
CCOC(C)=O [Ethyl acetate] | 19% | 23.29% | 
CCOC(=O)c1ccccc1 [Ethyl benzoate] | 29.4% | 30.02% | 
CCCC(=O)OCC [Ethyl butyrate] | 32% | 31.72% | 
CCCCCC(=O)OCC [Ethyl hexanoate] | 24.2% | 29.43% | 
CCCCC/C=C\C=C\C(=O)OCC [Ethyl-(2E,4Z)-decadienoate] |  | 68.07% | Ki (DabiOBP5; competitive displacement of 1-NPN; three replicates; mean ± SE; listed as ethyl-(2E,4Z)-decadienoate; read-out: OBP5 Ki (dissociation constant)): < 13 µM; Ki (DabiOBP5; competitive displacement of 1-NPN; three replicates; mean ± SE; read-out: OBP5 Ki (dissociation constant)): 5.67 ± 0.55 µM; OBP5 F.D. (%) fluorescence displacement percent (DabiOBP5; [2]): 69.83%; Ki (DabiOBP14; listed as ethyl-(2E,4Z)-decadienoate): < 13 µM; Ki (DabiOBP14): 6.45 ± 0.43 µM
CC(C)=CCC/C(C)=C/CC/C(C)=C/CO [Farnesol] | 36.3% | 36.20% | 
N#Cc1nn(-c2c(Cl)cc(C(F)(F)F)cc2Cl)c(N)c1[S+]([O-])C(F)(F)F (stereo not drawn) [Fipronil] | 23.7% | 29.70% | 
CC(C)=CCC/C(C)=C/CO [Geraniol] | 32.9% | 28.67% | 
CC(=O)OC/C=C(\C)CCC=C(C)C [Geranyl acetate] | 26.5% | 27.39% | 
CCCCCCC=O [Heptanal] | 42.5% | 25.87% | 
CCCCCCC [Heptane] | 31.4% | 22.91% | 
CCCCCCCOC(C)=O [Heptyl acetate] | 41% | 33.70% | 
CCCCCC=O [Hexanal] | 39.3% | 32.96% | 
CCCCCCOC(C)=O [Hexyl acetate] | 23.7% | 29.22% | 
O=[N+]([O-])NC1=NCCN1Cc1ccc(Cl)nc1 [Imidacloprid] | 22.5% | 39.56% | 
CCCCCCCCCCCC(=O)O [Lauric acid] |  | 30.18% | OBP5 F.D. (%) fluorescence displacement percent (DabiOBP5; [2]): 33.87%
C=C(C)[C@H]1CC=C(C)CC1 [Limonene] |  | 30.81% | OBP5 F.D. (%) fluorescence displacement percent (DabiOBP5; [2]): 38.31%
C=CC(C)(O)CCC=C(C)C (stereo not drawn) [Linalool] | 33.3% | 31.71% | 
O=C1CCC[C@@H]2[C@H]3CCCN4CCC[C@@H](CN12)[C@@H]34 [Matrine] | 29% | 29.59% | 
COC(C)=O [Methyl acetate] |  | 27.21% | OBP5 F.D. (%) fluorescence displacement percent (DabiOBP5; [2]): 27.62%
COC(=O)c1ccccc1 [Methyl benzoate] | 30.5% | 30.65% | 

SMILES | inhibition at 20 µM (DabiOBP5; [1]) | OBP14 F.D. (%) fluorescence displacement percent (DabiOBP14) | further results
CCCCCCCCCCCC(=O)OC [Methyl laurate] | 7.25% | 12.60% | 
C=CC(=C)CCC=C(C)C [Myrcene] | 37.1% | 34.84% | 
CCCCCCCCCCCCCCCCCCC [Nonadecane] | 27.7% | 15.30% | 
CCCCCCCCC=O [Nonanal] | 31.5% | 23.55% | 
CCCCCCCCCOC(C)=O [Nonyl acetate] | 16.5% | 22.98% | 
C=CC(C)=CCC=C(C)C [Ocimene] |  | 33.18% | OBP5 F.D. (%) fluorescence displacement percent (DabiOBP5; [2]): 33.97%
CCCCCCCCCCCCCCCCCC [Octadecane] | 26.5% | 23.94% | 
CCCCCCCC=O [Octanal] | 35.6% | 34.48% | 
CCCCCCCCOC(C)=O [Octyl acetate] | 35.4% | 30.09% | 
OCCc1ccccc1 [Phenethyl alcohol] | 37.6% | 10.00% | 
O=C(Oc1ccccc1)c1ccccc1 [Phenyl benzoate] | 31.7% | 34.36% | 
O=CCc1ccccc1 [Phenylacetaldehyde] | 29.1% | 33.05% | 
CCOP(=S)(OCC)O/N=C(\C#N)c1ccccc1 [Phoxim] |  | 89.62% | inhibition at 20 µM (DabiOBP5; [3]): 82%; Ki (DabiOBP5; [4]): < 13 µM and 2.89 µM; Ki (DabiOBP14; listed as phoxim): < 13 µM; Ki (DabiOBP14): 2.38 ± 0.28 µM
CCCOC(C)=O [Propyl acetate] | 31.4% | 25.46% | 
C=C(C)[C@H]1Cc2c(ccc3c2O[C@@H]2COc4cc(OC)c(OC)cc4[C@@H]2C3=O)O1 [Rotenone] |  | 58.66% | inhibition at 20 µM (DabiOBP5; [3]): 56%; Ki (DabiOBP5; [4]): < 13 µM and 12.7 µM; Ki (DabiOBP14): < 13 µM and 10.2 µM
CC(C)=CCC/C(C)=C/CC/C(C)=C/CC/C=C(\C)CC/C=C(\C)CCC=C(C)C [Squalene] | 32.3% | 24.81% | 
COc1cc(C=O)cc(OC)c1O [Syringaldehyde] | 38.5% | 34.32% | 
CCCCCCCCCCCCCC [Tetradecane] | 25% | 27.13% | 
CCCCCCCCCCCCCCCCCCCCCCC [Tricosane] | 32.8% | 27.90% | 
CCCCCCCCCCC=O [Undecanal] | 27.8% | 35.28% | 
CCCCCCCCCCC [Undecane] | 4.42% | 6.47% | 
